{"source": "patent US20250313579A1", "about": "“LIGAND COMPOUNDS COMPRISING A CHELATING GROUP AS A BRIDGING GROUP” (Technische Universität München, priority 2021, published 2025)"}
{"experiment": "Octanol-water distribution coefficient (LogDpH=7.4)", "type": "physicochemical", "settings": "n-octanol/PBS pH 7.4; radioactive ligand", "description": "This distribution coefficient may be determined by measuring the equilibrium distribution, e.g. at room temperature (20° C.o) of a compound in accordance with the invention in a two-phase system containing equal amounts, such as 1.00 ml each, of n-octanol and PBS (pH=7.4), and calculating the logD7.4 value as log 10 (concentration in octanol/concentration in PBS). Instead of the (absolute) concentration of the compound in accordance with the invention in the octanol and the PBS, a parameter which is proportional to the concentration of the compound in each phase may also be used for the calculation, such as the activity of radiation if the compound comprises a radioactive moiety, e.g. a radioactive chelate.\nThe radioactive ligand of interest (0.7-1.0 MBq) is given to a mixture of n-octanol and PBS (1 ml, 1/1; v/V) in a 1.5 ml reaction tube and shaken vigorously for 3 min. The resulting mixture is centrifuged (9000 rpm, 5 min, RT), and 100 μl of the octanol and PBS phases isolated separately.\nQuantification occurs by the determination of the activity of each isolated probe in a γ-counter. The LogDpH=7.4 value is determined by the following equation:\nThe determination of the final LogDpH=7.4 value is executed in octets. The mean value and standard deviation are determined after the removal of outlying values."}
{"smiles": "C[C@@H](O)[C@H](NC(=O)[C@@H]1CSSC[C@H](NC(=O)[C@@H](Cc2ccccc2)NC(=O)CN2CCN(CC(=O)O)CCN(CC(=O)NCCCC[C@@H](NC(=O)[C@@H](CNC(=O)C[N+](C)(C)Cc3ccc([Si](F)(C(C)(C)C)C(C)(C)C)cc3)NC(=O)[C@@H](CCCNC(N)=O)NC(=O)[C@@H](CCCNC(N)=O)NC(=O)[C@H](N)CCCNC(N)=O)C(=O)O)CCN(CC(=O)O)CC2)C(=O)N[C@@H](Cc2ccc(O)cc2)C(=O)N[C@H](Cc2c[nH]c3ccccc23)C(=O)N[C@@H](CCCCN)C(=O)N[C@@H]([C@@H](C)O)C(=O)N1)C(=O)O", "note": "[[Ga]03, H-D -Cit-D -Cit-D -Cit-D-Dap(N-SiFAlin-N,N-Me2-Gly)-D-Lys(trans-[na′Ga] DOTA-TATE)-OH]", "LogDpH=7.4": "−2.27 ± 0.04"}
{"smiles": "C[C@@H](O)[C@H](NC(=O)[C@@H]1CSSC[C@H](NC(=O)[C@@H](Cc2ccccc2)NC(=O)CN2CCN(CC(=O)O)CCN(CC(=O)NCCCC[C@@H](NC(=O)[C@@H](CNC(=O)C[N+](C)(C)Cc3ccc([Si](F)(C(C)(C)C)C(C)(C)C)cc3)NC(=O)[C@@H](CCCCN)NC(=O)[C@@H](CCC(=O)O)NC(=O)[C@H](N)CCC(=O)O)C(=O)O)CCN(CC(=O)O)CC2)C(=O)N[C@@H](Cc2ccc(O)cc2)C(=O)N[C@H](Cc2c[nH]c3ccccc23)C(=O)N[C@@H](CCCCN)C(=O)N[C@@H]([C@@H](C)O)C(=O)N1)C(=O)O", "note": "[Compound 06, H-D-Glu-D-Glu-D-Lys-D-Dap(N-SiFAlin-N,N-Mez-Gly)-D-Lys(trans-DOTA-TATE)-OH]", "LogDpH=7.4": "−2.36 ± 0.03"}
{"smiles": "C[C@@H](O)[C@H](NC(=O)[C@@H]1CSSC[C@H](NC(=O)[C@@H](Cc2ccccc2)NC(=O)CN2CCN3CCN(CC(=O)NCCCC[C@@H](NC(=O)[C@@H](CNC(=O)C[N+](C)(C)Cc4ccc([Si](F)(C(C)(C)C)C(C)(C)C)cc4)NC(=O)[C@@H](CCC(=O)O)NC(=O)[C@@H](CCC(=O)O)NC(=O)[C@H](N)CCC(=O)O)C(=O)O)CCN(CC2)CC(=O)[O][Ga+][O]C(=O)C3)C(=O)N[C@@H](Cc2ccc(O)cc2)C(=O)N[C@H](Cc2c[nH]c3ccccc23)C(=O)N[C@@H](CCCCN)C(=O)N[C@@H]([C@@H](C)O)C(=O)N1)C(=O)O", "note": "[[Ga]07, H-D-Glu-D-Glu-D-Glu-D-Dap(N-SiFAlin-N,N-Me2-Gly)-D-Lys(trans-[^natGa] DOTA-TATE)-OH]", "LogDpH=7.4": "−2.30 ± 0.04"}
{"smiles": "C[C@@H](O)[C@H](NC(=O)[C@@H]1CSSC[C@H](NC(=O)[C@@H](Cc2ccccc2)NC(=O)CN2CCN(CC(=O)O)CCN(CC(=O)NCCCC[C@@H](NC(=O)[C@@H](CNC(=O)C[N+](C)(C)Cc3ccc([Si](F)(C(C)(C)C)C(C)(C)C)cc3)NC(=O)[C@@H](CCC(=O)O)NC(=O)[C@@H](CCC(=O)O)NC(=O)[C@@H](CCC(=O)O)NC(=O)[C@]3(O)C[C@@H](O)[C@@H](O)[C@H](O)C3)C(=O)O)CCN(CC(=O)O)CC2)C(=O)N[C@@H](Cc2ccc(O)cc2)C(=O)N[C@H](Cc2c[nH]c3ccccc23)C(=O)N[C@@H](CCCCN)C(=O)N[C@@H]([C@@H](C)O)C(=O)N1)C(=O)O", "note": "[[Ga]09, D-(−)-quinic acid-D-Glu-D-Glu-D-Glu-D-Dap(N-SiFAlin-N,N-Me2-Gly)-D-Lys(trans-[^natGa] DOTA-TATE)-OH, metal not drawn]", "LogDpH=7.4": "−2.28 ± 0.04"}
{"smiles": "C[C@@H](O)[C@H](NC(=O)[C@@H]1CSSC[C@H](NC(=O)[C@@H](Cc2ccccc2)NC(=O)CN2CCN(CC(=O)O)CCN(CC(=O)NCCCC[C@@H](NC(=O)[C@@H](CNC(=O)C[N+](C)(C)Cc3ccc([Si](F)(C(C)(C)C)C(C)(C)C)cc3)NC(=O)[C@@H](CCCNC(N)=O)NC(=O)[C@@H](CCCNC(N)=O)NC(=O)[C@H](N)CCC(=O)O)C(=O)O)CCN(CC(=O)O)CC2)C(=O)N[C@@H](Cc2ccc(O)cc2)C(=O)N[C@H](Cc2c[nH]c3ccccc23)C(=O)N[C@@H](CCCCN)C(=O)N[C@@H]([C@@H](C)O)C(=O)N1)C(=O)O", "note": "[[Ga]04, H-D-Glu-D -Cit-D -Cit-D-Dap(N-SiFAlin-N,N-Mez-Gly)-D-Lys(trans-[^natGa] DOTA-TATE)-OH, metal not drawn]", "LogDpH=7.4": "−2.30 ± 0.03"}
{"smiles": "C[C@@H](O)[C@H](NC(=O)[C@@H]1CSSC[C@H](NC(=O)[C@@H](Cc2ccccc2)NC(=O)CN2CCN3CCN(CC(=O)NCCCC[C@@H](NC(=O)[C@@H](CCC(=O)O)NC(=O)[C@@H](CNC(=O)C[N+](C)(C)Cc4ccc([Si](F)(C(C)(C)C)C(C)(C)C)cc4)NC(=O)[C@@H](CCC(=O)O)NC(=O)[C@@H](CCC(=O)O)NC(=O)[C@H](N)CCC(=O)O)C(=O)O)CCN(CC2)CC(=O)[O][Ga+][O]C(=O)C3)C(=O)N[C@@H](Cc2ccc(O)cc2)C(=O)N[C@H](Cc2c[nH]c3ccccc23)C(=O)N[C@@H](CCCCN)C(=O)N[C@@H]([C@@H](C)O)C(=O)N1)C(=O)O", "note": "[[Ga]08, H-D-Glu-D-Glu-D-Glu-D-Dap(N-SiFAlin-N,N-Me2-Gly)-D-Glu-D-Lys(trans-[^natGa] DOTA-TATE)-OH]", "LogDpH=7.4": "−2.07 ± 0.04"}
{"smiles": "C[C@@H](O)[C@H](NC(=O)[C@@H]1CSSC[C@H](NC(=O)[C@@H](Cc2ccccc2)NC(=O)CN2CCN3CCN(CC(=O)NCCCC[C@@H](NC(=O)[C@@H](CNC(=O)C[N+](C)(C)Cc4ccc([Si](F)(C(C)(C)C)C(C)(C)C)cc4)NC(=O)[C@@H](CCCCN)NC(=O)[C@@H](CCC(=O)O)NC(=O)[C@H](N)CCC(=O)O)C(=O)O)CCN(CC2)CC(=O)[O][Ga+][O]C(=O)C3)C(=O)N[C@@H](Cc2ccc(O)cc2)C(=O)N[C@H](Cc2c[nH]c3ccccc23)C(=O)N[C@@H](CCCCN)C(=O)N[C@@H]([C@@H](C)O)C(=O)N1)C(=O)O", "note": "[[Ga]06, H-D-Glu-D-Glu-D-Lys-D-Dap(N-SiFAlin-N, N-Me2-Gly)-D-Lys(trans-[^natGa] DOTA-TATE)-OH]", "LogDpH=7.4": "−2.28 ± 0.04"}
{"smiles": "C[C@@H](O)[C@H](NC(=O)[C@@H]1CSSC[C@H](NC(=O)[C@@H](Cc2ccccc2)NC(=O)CN2CCN(CC(=O)O)CCN(CC(=O)NCCCC[C@@H](NC(=O)C[N+](C)(C)Cc3ccc([Si](F)(C(C)(C)C)C(C)(C)C)cc3)C(=O)O)CCN(CC(=O)O)CC2)C(=O)N[C@@H](Cc2ccc(O)cc2)C(=O)N[C@H](Cc2c[nH]c3ccccc23)C(=O)N[C@@H](CCCCN)C(=O)N[C@@H]([C@@H](C)O)C(=O)N1)C(=O)O", "note": "[[Ga]01, N-SiFAlin-N,N-Me2-Gly-D-Lys(trans-[^natGa] DOTA-TATE)-OH, metal not drawn]", "LogDpH=7.4": "−1.19 ± 0.07"}
{"smiles": "C[C@@H](O)[C@H](NC(=O)[C@@H]1CSSC[C@H](NC(=O)[C@@H](Cc2ccccc2)NC(=O)CN2CCN(CC(=O)O)CCN(CC(=O)NCCCC[C@@H](NC(=O)[C@@H](CNC(=O)C[N+](C)(C)Cc3ccc([Si](F)(C(C)(C)C)C(C)(C)C)cc3)NC(=O)[C@@H](CN)NC(=O)[C@@H](CCC(=O)O)NC(=O)[C@H](N)CCC(=O)O)C(=O)O)CCN(CC(=O)O)CC2)C(=O)N[C@@H](Cc2ccc(O)cc2)C(=O)N[C@H](Cc2c[nH]c3ccccc23)C(=O)N[C@@H](CCCCN)C(=O)N[C@@H]([C@@H](C)O)C(=O)N1)C(=O)O", "note": "[Compound 05, H-D-Glu-D-Glu-D-Dap-D-Dap(N-SiFAlin-N,N-Mez-Gly)-D-Lys(trans-DOTA-TATE)-OH]", "LogDpH=7.4": "−1.96 ± 0.06"}
{"smiles": "C[C@@H](O)[C@H](NC(=O)[C@@H]1CSSC[C@H](NC(=O)[C@@H](Cc2ccccc2)NC(=O)CN2CCN3CCN(CC(=O)NC[C@@H](NC(=O)C[N+](C)(C)Cc4ccc([Si](F)(C(C)(C)C)C(C)(C)C)cc4)C(=O)O)CCN(CC2)CC(=O)[O][Ga+][O]C(=O)C3)C(=O)N[C@@H](Cc2ccc(O)cc2)C(=O)N[C@H](Cc2c[nH]c3ccccc23)C(=O)N[C@@H](CCCCN)C(=O)N[C@@H]([C@@H](C)O)C(=O)N1)C(=O)O", "note": "[[Ga]02, N-SiFAlin-N, N-Me2-Gly-D-Dap(trans-[^natGa] DOTA-TATE)-OH]", "LogDpH=7.4": "−1.03 ± 0.04"}
{"smiles": "C[C@@H](O)[C@H](NC(=O)[C@@H]1CSSC[C@H](NC(=O)[C@@H](Cc2ccccc2)NC(=O)CN2CCN3CCN(CC(=O)NCCCC[C@@H](NC(=O)[C@@H](CNC(=O)C[N+](C)(C)Cc4ccc([Si](F)(C(C)(C)C)C(C)(C)C)cc4)NC(=O)[C@@H](CN)NC(=O)[C@@H](CCC(=O)O)NC(=O)[C@H](N)CCC(=O)O)C(=O)O)CCN(CC2)CC(=O)[O][Ga+][O]C(=O)C3)C(=O)N[C@@H](Cc2ccc(O)cc2)C(=O)N[C@H](Cc2c[nH]c3ccccc23)C(=O)N[C@@H](CCCCN)C(=O)N[C@@H]([C@@H](C)O)C(=O)N1)C(=O)O", "note": "[[Ga]05, H-D-Glu-D-Glu-D-Dap-D-Dap(N-SiFAlin-N,N-Me2-Gly)-D-Lys(trans-[^natGa] DOTA-TATE)-OH]", "LogDpH=7.4": "−2.12 ± 0.06"}
